Active and inactive are the calls of the source. The calls are words filed in the database; no cut-off is given here.
Experiments:
[1] = system: NCI-H23; assay: Growth inhibition of human NCI-H23 cells assessed as cell viability at 10 uM incubated for 48 hrs by sulforhodamine B assay; format: functional; details: NCI-H23, 48 h, read-out: Activity
[2] = system: U-251; assay: Growth inhibition of human U251 cells assessed as cell viability at 10 uM incubated for 48 hrs by sulforhodamine B assay; format: functional; details: U-251, 48 h, read-out: Activity
[3] = system: MCF7; assay: Growth inhibition of human MCF7 cells assessed as cell viability at 10 uM incubated for 48 hrs by sulforhodamine B assay; format: functional; details: MCF7, 48 h, read-out: Activity
[4] = system: CCRF-CEM; assay: Growth inhibition of human CCRF-CEM cells assessed as cell viability at 10 uM incubated for 48 hrs by sulforhodamine B assay; format: functional; details: read-out: Activity
[5] = system: OVCAR-8; assay: Growth inhibition of human OVCAR8 cells assessed as cell viability at 10 uM incubated for 48 hrs by sulforhodamine B assay; format: functional; details: OVCAR-8, 48 h, read-out: Activity
[6] = system: NCI-H226; assay: Growth inhibition of human NCI-H226 cells assessed as cell viability at 10 uM incubated for 48 hrs by sulforhodamine B assay; format: functional; details: NCI-H226, 48 h, read-out: Activity
[7] = system: SNB-19; assay: Growth inhibition of human SNB19 cells assessed as cell viability at 10 uM incubated for 48 hrs by sulforhodamine B assay; format: functional; details: SNB-19, 48 h, read-out: Activity
[8] = system: UO-31; assay: Growth inhibition of human UO31 cells assessed as cell viability at 10 uM incubated for 48 hrs by sulforhodamine B assay; format: functional; details: UO-31, 48 h, read-out: Activity
[9] = system: DU-145; assay: Growth inhibition of human DU145 cells assessed as cell viability at 10 uM incubated for 48 hrs by sulforhodamine B assay; format: functional; details: DU-145, 48 h, read-out: Activity
[10] = system: 786-0; assay: Growth inhibition of human 786-0 cells assessed as cell viability at 10 uM incubated for 48 hrs by sulforhodamine B assay; format: functional; details: 786-0, 48 h, read-out: Activity
[11] = Growth inhibition of human HOP92 cells assessed as cell viability at 10 uM incubated for 48 hrs by sulforhodamine B assay; format: functional; details: HOP-92, 48 h, read-out: Activity
[12] = system: OVCAR-4; assay: Growth inhibition of human OVCAR4 cells assessed as cell viability at 10 uM incubated for 48 hrs by sulforhodamine B assay; format: functional; details: OVCAR-4, 48 h, read-out: Activity
[13] = system: HL-60(TB); assay: Growth inhibition of human HL-60(TB) cells assessed as cell viability at 10 uM incubated for 48 hrs by sulforhodamine B assay; format: functional; details: HL-60, 48 h, read-out: Activity
[14] = system: PC-3; assay: Growth inhibition of human PC3 cells assessed as cell viability at 10 uM incubated for 48 hrs by sulforhodamine B assay; format: functional; details: PC-3, 48 h, read-out: Activity
[15] = system: KM12; assay: Growth inhibition of human KM12 cells assessed as cell viability at 10 uM incubated for 48 hrs by sulforhodamine B assay; format: functional; details: KM12, 48 h, read-out: Activity
[16] = system: ACHN; assay: Growth inhibition of human ACHN cells assessed as cell viability at 10 uM incubated for 48 hrs by sulforhodamine B assay; format: functional; details: read-out: Activity
[17] = Growth inhibition of human MOLT4 cells assessed as cell viability at 10 uM incubated for 48 hrs by sulforhodamine B assay; format: functional; details: MOLT-4, 48 h, read-out: Activity
[18] = system: NCI-H322M; assay: Growth inhibition of human NCI-H322M cells assessed as cell viability at 10 uM incubated for 48 hrs by sulforhodamine B assay; format: functional; details: read-out: Activity
[19] = system: A498; assay: Growth inhibition of human A498 cells assessed as cell viability at 10 uM incubated for 48 hrs by sulforhodamine B assay; format: functional; details: A498, 48 h, read-out: Activity
[20] = Growth inhibition of human COLO205 cells assessed as cell viability at 10 uM incubated for 48 hrs by sulforhodamine B assay; format: functional; details: COLO 205, 48 h, read-out: Activity
[21] = system: OVCAR-3; assay: Growth inhibition of human OVCAR3 cells assessed as cell viability at 10 uM incubated for 48 hrs by sulforhodamine B assay; format: functional; details: OVCAR-3, 48 h, read-out: Activity
[22] = system: SK-MEL-5; assay: Growth inhibition of human SK-MEL-5 cells assessed as cell viability at 10 uM incubated for 48 hrs by sulforhodamine B assay; format: functional; details: SK-MEL-5, 48 h, read-out: Activity
[23] = Growth inhibition of human Hs 578T cells assessed as cell viability at 10 uM incubated for 48 hrs by sulforhodamine B assay; format: functional; details: read-out: Activity
[24] = system: HCT-116; assay: Growth inhibition of human HCT116 cells assessed as cell viability at 10 uM incubated for 48 hrs by sulforhodamine B assay; format: functional; details: HCT-116, 48 h, read-out: Activity
[25] = system: CAKI-1; assay: Growth inhibition of human CAKI-1 cells assessed as cell viability at 10 uM incubated for 48 hrs by sulforhodamine B assay; format: functional; details: CAKI-1, 48 h, read-out: Activity
[26] = Growth inhibition of human NCI60 cells assessed as cell viability at 10 uM incubated for 48 hrs by sulforhodamine B assay; format: functional; details: NCI60, 48 h, read-out: Activity
[27] = system: IGROV-1; assay: Growth inhibition of human IGROV1 cells assessed as cell viability at 10 uM incubated for 48 hrs by sulforhodamine B assay; format: functional; details: IGROV-1, 48 h, read-out: Activity
[28] = system: SK-MEL-28; assay: Growth inhibition of human SK-MEL-28 cells assessed as cell viability at 10 uM incubated for 48 hrs by sulforhodamine B assay; format: functional; details: SK-MEL-28, 48 h, read-out: Activity
[29] = Growth inhibition of human LOXIMVI cells assessed as cell viability at 10 uM incubated for 48 hrs by sulforhodamine B assay; format: functional; details: LOX IMVI, read-out: Activity
[30] = system: K562; assay: Growth inhibition of human K562 cells assessed as cell viability at 10 uM incubated for 48 hrs by sulforhodamine B assay; format: functional; details: K562, 48 h, read-out: Activity
[31] = Growth inhibition of human RXF393 cells assessed as cell viability at 10 uM incubated for 48 hrs by sulforhodamine B assay; format: functional; details: RXF 393, 48 h, read-out: Activity
[32] = system: Malme-3M; assay: Growth inhibition of human MALME-3M cells assessed as cell viability at 10 uM incubated for 48 hrs by sulforhodamine B assay; format: functional; details: read-out: Activity
[33] = Growth inhibition of human SF539 cells assessed as cell viability at 10 uM incubated for 48 hrs by sulforhodamine B assay; format: functional; details: SF-539, 48 h, read-out: Activity
[34] = system: T47D; assay: Growth inhibition of human T47D cells assessed as cell viability at 10 uM incubated for 48 hrs by sulforhodamine B assay; format: functional; details: read-out: Activity
[35] = system: MDA-MB-468; assay: Growth inhibition of human MDA-MB-468 cells assessed as cell viability at 10 uM incubated for 48 hrs by sulforhodamine B assay; format: functional; details: MDA-MB-468, 48 h, read-out: Activity
[36] = system: Rattus norvegicus; assay: Antidiabetic activity in Wistar rat assessed as reduction in blood glucose level at 30 mg/kg, po dosed 30 mins before glucose challenge and measured 30 and 60 mins post glucose challenge by OGTT method; format: functional, organism-based

SMILES | viability at 10 µM [1] [%] | viability at 10 µM [2] [%] | viability at 10 µM [3] [%] | viability at 10 µM [4] [%] | viability at 10 µM [5] [%] | viability at 10 µM [6] [%] | viability at 10 µM [7] [%] | viability at 10 µM [8] [%] | viability at 10 µM [9] [%] | viability at 10 µM [10] [%] | viability at 10 µM [11] [%] | viability at 10 µM [12] [%] | viability at 10 µM [13] [%] | viability at 10 µM [14] [%] | viability at 10 µM [15] [%] | viability at 10 µM [16] [%] | viability at 10 µM [17] [%] | viability at 10 µM [18] [%] | viability at 10 µM [19] [%] | viability at 10 µM [20] [%] | also measured
O=C(NCc1ccccc1)NS(=O)(=O)c1ccc(N2N=C(c3cc4ccccc4oc3=O)CC2c2cccs2)cc1 (stereo not drawn) | 101 | 102 | 94.4 | 108 | 103 | 98.4 | 108 | 95.7 | 110 | 95.3 | 94.2 | 98.2 | 119 | 108 | 105 | 102 | 106 | 106 | 107 | 119 | viability at 10 µM [21]: 106%; viability at 10 µM [22]: 101%; viability at 10 µM [23]: 99.6%; viability at 10 µM [24]: 106%; viability at 10 µM [25]: 94.2%; viability at 10 µM [26]: 103%; viability at 10 µM [27]: 117%; viability at 10 µM [28]: 97.4%; viability at 10 µM [29]: 97.7%; viability at 10 µM [30]: 111%; viability at 10 µM [31]: 123%; viability at 10 µM [32]: 90.7%; viability at 10 µM [33]: 103%; viability at 10 µM [34]: 97.4%; viability at 10 µM [35]: 110%
COc1ccc(C2CC(c3cc4ccccc4oc3=O)=NN2c2ccc(S(=O)(=O)NC(=O)Nc3ccccc3C)cc2)cc1 (stereo not drawn) | 87.7 | 99.4 | 91.1 | 92.6 | 99.9 | 85.4 | 102 | 68.9 | 111 | 94.2 | 60.7 | 86.9 | 108 | 81 | 102 | 89.7 | 84.6 | 87.1 | 94.7 | 119 | viability at 10 µM [21]: 107%; viability at 10 µM [22]: 97.2%; viability at 10 µM [23]: 84.8%; Activity [36]: Active; viability at 10 µM [24]: 82.6%; viability at 10 µM [25]: 83.8%; viability at 10 µM [26]: 93.4%; viability at 10 µM [27]: 109%; viability at 10 µM [28]: 102%; viability at 10 µM [29]: 92.6%; viability at 10 µM [30]: 76.8%; viability at 10 µM [31]: 116%; viability at 10 µM [32]: 104%; viability at 10 µM [33]: 85.8%; viability at 10 µM [34]: 95.8%; viability at 10 µM [35]: 100%
CN(C)c1ccc(C2CC(c3cc4ccccc4oc3=O)=NN2c2ccc(S(=O)(=O)NC(=O)NCc3ccccc3)cc2)cc1 (stereo not drawn) | 67.3 | 67.8 | 47.6 | 72 | 71.7 | 74 | 82 | 44.9 | 84.9 | 68.4 | 49.1 | 52.8 | 66.4 | 67.1 | 72.9 | 58.2 | 66.6 | 79.6 | 51.2 | 78.2 | viability at 10 µM [21]: 82.2%; viability at 10 µM [22]: 62.7%; viability at 10 µM [23]: 67.1%; Activity [36]: Active; viability at 10 µM [24]: 48.5%; viability at 10 µM [25]: 49.4%; viability at 10 µM [26]: 65.8%; viability at 10 µM [27]: 97.8%; viability at 10 µM [28]: 57.4%; viability at 10 µM [29]: 79.8%; viability at 10 µM [30]: 59.5%; viability at 10 µM [31]: 85.4%; viability at 10 µM [32]: 89.9%; viability at 10 µM [33]: 70.8%; viability at 10 µM [34]: 64%; viability at 10 µM [35]: 68.2%
COc1ccc(NC(=O)NS(=O)(=O)c2ccc(N3N=C(c4cc5ccccc5oc4=O)CC3c3ccc(N(C)C)cc3)cc2)cc1 (stereo not drawn) | 85.1 | 91.8 | 83.1 | 107 | 94.9 | 89.7 | 103 | 86 | 111 | 96.9 | 79.8 | 92.4 | 130 | 97.6 | 101 | 89.7 | 107 | 99.9 | 80.6 | 115 | viability at 10 µM [21]: 102%; viability at 10 µM [22]: 98.4%; viability at 10 µM [23]: 84.9%; viability at 10 µM [24]: 82.6%; viability at 10 µM [25]: 88.9%; viability at 10 µM [26]: 95.5%; viability at 10 µM [27]: 109%; viability at 10 µM [28]: 101%; viability at 10 µM [29]: 95.6%; viability at 10 µM [30]: 114%; viability at 10 µM [31]: 105%; viability at 10 µM [32]: 81%; viability at 10 µM [33]: 91.5%; viability at 10 µM [34]: 87.7%; viability at 10 µM [35]: 104%
COc1ccc(C2CC(c3ccco3)=NN2c2ccc(S(=O)(=O)NC(=O)NCc3ccccc3)cc2)cc1 (stereo not drawn) | 108 | 99.3 | 94.7 | 99 | 97.9 | 97.1 | 108 | 99.4 | 108 | 98.6 | 80.6 | 97.1 | 126 | 92.4 | 105 | 101 | 110 | 97.5 | 96.2 | 123 | viability at 10 µM [21]: 113%; viability at 10 µM [22]: 102%; viability at 10 µM [23]: 105%; Activity [36]: Active; viability at 10 µM [24]: 93.9%; viability at 10 µM [25]: 97.7%; viability at 10 µM [26]: 101%; viability at 10 µM [27]: 113%; viability at 10 µM [28]: 101%; viability at 10 µM [29]: 102%; viability at 10 µM [30]: 98%; viability at 10 µM [31]: 113%; viability at 10 µM [32]: 107%; viability at 10 µM [33]: 90%; viability at 10 µM [34]: 84.6%; viability at 10 µM [35]: 101%
